Patent US7241570B2, “Method of screening for agents that regulate the shedding of membrane bound proteins and methods of use” (University of Utah Research Foundation, priority 2001, dated 2007)

What was measured:
[1] = system: phosphatidylinositol 5-kinases; settings: cited from earlier work
[2] = system: TNFα release from liver and spleen cell suspensions; assay: TNFα ectodomain shedding from liver and spleen cell suspensions (ELISA); type: cell-based, mouse; settings: LPS 5 μg/mL, PMA 50 ng/mL, liver and spleen cell suspensions of newborn mice
Procedure: TACE was originally identified as the enzyme that proteolytically releases TNFα from the cell surface. Black, R. et al. Nature 385, 729-733 (1997); Moss, M. L. et al. Nature 385, 733-736 (1997). Whether deleting DGKδ affected ectodomain shedding of TNFα from liver and spleen cell suspensions was tested—where hematopoietic activity is highest in newborn mice. Tamura, K. et al. Cell 102, 221-231 (2000). To induce release on TNFα, the cell suspensions were stimulated with lipopolysaccharide (LPS, […]), PMA (50 ng/mL), or a combination of LPS (5 μg/mL) and PMA (50 ng/mL). As measured by ELISA, both agents induced release of TNFα into the medium, with LPS inducing a five-fold increase and PMA causing a three-fold increase. Combining LPS and PMA increased TNFα shedding twenty-fold. […] Reddy, P. et al. J. Biol. Chem. 275, 14608-14614 (2000)

[3] = system: β-APP shedding from embryonic fibroblasts; assay: Release of endogenous β-APP from embryonic fibroblasts; type: cell-based, mouse
From the text: TACE is the only enzyme known to shed soluble TGFα, a process enhanced by stimulation with serum or PMA. Peschon, J. J. et al. Science 282, 1281-1284 (1998). It is not known whether or not the cytoplasmic tail of TACE is required to activate TGFα shedding. To test if DGKδ affected release of TGFα, the amounts of soluble TGFα in the culture media of dgkd^−/− and wild-type embryonic fibroblasts transfected with pro-TGFα were compared. […] Supporting a role for DGKδ in stimulated TGFα shedding, PMA-induced shedding of TGFα by dgkd^−/− cells was approximately 25% that of stimulated wild-type cells (FIG. 4A, left). […] Since TACE is the only enzyme known to shed TGFα, DGKδ was likely affecting TACE. TACE is also known to cleave β-APP, so the release of endogenous β-APP from embryonic fibroblasts was examined next. Reddy, P. et al. J. Biol. Chem. 275, 14608-14614 (2000).

DGKδ and TACE = assay: Co-immunoprecipitation of DGKδ and myc-TACE overexpressed in COS7 cells; type: cell-based; settings: COS7 cells after starvation (0.5% serum for 2 hrs)
From the text: According to previous experiments, DGKδ appears to regulate the activity of TACE toward some of its substrates. Based on the data, however, it is not clear whether DGKδ directly activates TACE or indirectly affects its activity through another protein. It was hypothesized that in order to regulate TACE, DGKδ must associate with it or a complex of proteins that contains TACE. To address whether this occurs in vivo, the enzymes were overexpressed in COS7 cells and then co-immunoprecipitation analysis was performed. Myc-tagged TACE in cell lysates was immunoprecipitated with an anti-myc monoclonal antibody, and then immune complexes were analyzed for co-immunoprecipitation of DGKδ by immunoblotting. When cells were grown in normal medium (10% FBS) DGKδ clearly co-immunoprecipitated with TACE (FIG. 6 left). Controls using normal IgG for immunoprecipitation instead of anti-myc antibody, or where anti-myc was used, but myc-TACE was not included in the transfection, established the specificity of DGKδ-TACE co-immunoprecipitation. Two agents previously shown to induce TACE activity are serum factors and PMA. […] Thus, stimuli that increase TACE activity enhance an interaction between DGKδ and TACE, providing further evidence that DGKδ positively regulates TACE activity.

[4] = system: phosphorylated ERK1 and 2; assay: ERK phosphorylation after exogenous EGF in primary embryonic fibroblasts (immunoblot densitometry); type: cell-based, mouse
From the text: Whether signaling downstream of EGFR was affected in DGKδ mutant mice was also examined. Since the MAPK pathway is a major route of EGFR signaling, ERK phosphorylation was examined in cell lines developed from knockout mice. Prenzel, N., et al. Endocrine-Related Cancer 8, 11-31 (2001). In primary embryonic fibroblasts from wild-type mice, exogenous EGF caused a 2.2 fold increase in phosphorylated ERK1 and 2 as judged by densitometry of the immunoblot bands (FIG. 3). […] Activation of EGFR signaling is known to mediate stress fiber formation induced by serum factors. Prenzel, N., et al. Endocrine-Related Cancer 8, 11-31 (2001). […] Thus, whether DGKδ affects the activity of TACE was examined next.

For phosphatidic acid [PA], which “activity of phosphatidylinositol 5-kinases in the presence of PA” value [1] is on record?
The value was 8-14 fold.

With `CCCCCCCCCCCCCC(=O)O[C@@H]1[C@@H](C)[C@@]2(O)[C@@H](C=C(CO)C[C@]3(O)C(=O)C(C)=C[C@@H]23)[C@@H]2C(C)(C)[C@]12OC(C)=O` [PMA] as the molecule, how does the “increase in release of TNFα into the medium” value [2] read?
Its value is “three-fold”.

What about the “increase in β-APP shedding” value ([3]; dgkd+/+ embryonic fibroblasts) of the same molecule?
Its value is 6-8 fold.

What about the “increase in β-APP shedding” value ([3]; dgkd−/− embryonic fibroblasts) of the same molecule?
Its value is “moderate increase”.

And the “co-immunoprecipitation of DGKδ and TACE” value (DGKδ and TACE)?
The value was “significantly increased”.

Which “increase in phosphorylated ERK1 and 2” value ([4]; primary embryonic fibroblasts from DGKδ null mice) does the source give for EGF: exogenous EGF, EGF receptor ligand here?
Its value is 2.1 fold.

And the “increase in phosphorylated ERK1 and 2” value ([4]; primary embryonic fibroblasts from wild-type mice, densitometry of immunoblot bands)?
Its value is 2.2 fold.

Which “increase in release of TNFα into the medium” value [2] does the source give for lipopolysaccharide [LPS] here?
The value was “five-fold”.
